Test results taken from patent publication US9732087B2, “Diamino-pyridine, pyrimidine, and pyridazine modulators of the histamine H4 receptor” (JANSSEN PHARMACEUTICA NV, priority 2008, dated 2017).
Structures can show the parent of a compound that is named as a salt.

Biological target: human H4 receptor (Homo sapiens (Human), UniProt Q9H3N8)
Assay: Binding assay on recombinant human histamine H4 receptor ([3H]histamine competition, SK-N-MC cell membranes)
Settings: Cell Harvester Ki (nM)
Procedure: Binding Assay on Recombinant Human Histamine H4Receptor
Cell pellets from SK-N-MC cells stably or transiently transfected with human H4 receptor (NCBI accession No. AF312230) were used for the binding assays. Cell pellets were homogenized in 50 mM Tris/5 mM EDTA buffer and supernatants from an 800 g spin were collected and recentrifuged at 30,000 g for 30 min. Pellets were rehomogenized in 50 mM Tris/5 mM EDTA buffer. […] Membranes were harvested by rapid filtration using the 96 well Brandel system (Table 1, Brandel) or a cell harvester (Table 1, Cell Harvester) using a Whatman GF/C filter or filter plates treated with 0.5% polyethylenimine (PEI), and washed 4 times with ice-cold 50 mM Tris/5 mM EDTA buffer. Filters were then dried, mixed with scintillant and radioactive counts were determined. […] Where activity is shown as greater than (>) a particular value, the value is the highest concentration tested.

| SMILES | Ki [nM] |
| --- | --- |
| CCCCNc1cc(N2CCNCC2)ccn1 [Example 36, N-Butyl-4-piperazin-1-ylpyridin-2-amine] | 104 |

Same assay, conditions: membranes harvested with 96 well Brandel system; [3H]histamine 10 nM; average of results; read-out: Brandel Ki

| SMILES | Ki [nM] |
| --- | --- |
| N[C@@H]1CCN(c2ccnc(NC3CC3)n2)C1 [Example 55, 4-[(3R)-3-Aminopyrrolidin-1-yl]-N-cyclopropylpyrimidin-2-amine] | 138 |
| CC(C)CNc1nccc(N2CCN(C)CC2)n1 [Example 31, Isobutyl-[4-(4-methyl-piperazin-1-yl)-pyrimidin-2-yl]-amine] | 69 |

Same assay, conditions: membranes harvested with cell harvester; [3H]histamine 10 nM; average of results; read-out: Cell Harvester Ki

| SMILES | Ki [nM] |
| --- | --- |
| COc1ccc(CNc2nccc(N3CCNCC3)n2)cc1 [Example 144, N-(4-Methoxybenzyl)-4-piperazin-1-ylpyrimidin-2-amine] | 2530 |
| N[C@@H]1CCN(c2ccnc(NCc3ccccn3)n2)C1 [Example 61] | > 10000 |
| c1nnc(NCC2CC2)cc1N1CCNCC1 [Example 361, N-(Cyclopropylmethyl)-5-piperazin-1-ylpyridazin-3-amine] | 1230 |
| CNC1CN(c2ccnc(NCC(C)C)n2)C1 [Example 171, 4-[3-(Methylamino)azetidin-1-yl]-N-(2-methylpropyl)pyrimidin-2-amine] | 3.89 |
| CC1(C)[C@@H]2CC[C@@]1(C)[C@@H](Nc1nccc(N3CC[C@@H](N)C3)n1)C2 [Example 127, 4-[(3R)-3-Aminopyrrolidin-1-yl]-N-[(1R,2S,4R)-1,7,7-trimethylbicyclo[2.2.1]hept-2-yl]pyrimidin-2-amine] | 1.66 |
| CN[C@@H]1CCN(c2ccnc(NCc3ccc(F)cc3)c2)C1 [Example 7, N-(4-Fluorobenzyl)-4-[(3R)-3-(methylamino)pyrrolidin-1-yl]pyridin-2-amine dihydrochloride] | 13.7 |
| CN[C@@H]1CCN(c2ccnc(NC3CCCCC3)n2)C1 [Example 192, N-Cyclohexyl-4-[(3R)-3-(methylamino)pyrrolidin-1-yl]pyrimidin-2-amine] | 2.42 |
| c1ccc(CNc2nccc(N3CCNCC3)n2)nc1 [Example 157, 4-Piperazin-1-yl-N-(pyridin-2-ylmethyl)pyrimidin-2-amine] | 2140 |
| CN[C@@H]1CCN(c2ccnc(NCC3CC4CCC3C4)c2)C1 (stereo partly drawn) [Example 253, N-(Bicyclo[2.21]hept-2-ylmethyl)-4-[(3R)-3-(methylamino)pyrrolidin-1-yl]pyridin-2-amine] | 4.33 |
| CN[C@H]1CCN(c2ccnc(NCc3ccc(F)cc3)c2)C1 [Example 246, N-(4-Fluorobenzyl)-4-[(3S)-3-(methylamino)pyrrolidin-1-yl]pyridin-2-amine] | 395 |
| CC(C)(CO)CNc1nccc(N2CCNCC2)n1 [Example 166, 2,2-Dimethyl-3-[(4-piperazin-1-ylpyrimidin-2-yl)amino]propan-1-ol] | > 10000 |
| COCCNc1nccc(N2CC[C@H](N)C2)n1 [Example 128, 4-[(3S)-3-Aminopyrrolidin-1-yl]-N-(2-methoxyethyl)pyrimidin-2-amine] | 844 |
| NC1CN(c2ccnc(NC[C@H]3CCCO3)n2)C1 [Example 94, 4-(3-Aminoazetidin-1-yl)-N-[(2R)-tetrahydrofuran-2-ylmethyl]pyrimidin-2-amine] | 868 |
| CN[C@@H]1CCN(c2ccnc(NCc3ccc(F)cc3)n2)C1 [Example 79, (4-Fluoro-benzyl)-[4-(3R)-(3-methylamino-pyrrolidin-1-yl)-pyrimidin-2-yl]amine] | 11.6 |
| CN[C@@H]1CCN(c2ccnc(NC3CC4CC(C3C)C4(C)C)n2)C1 (stereo partly drawn) [Example 184, 4-[(3R)-3-(Methylamino)pyrrolidin-1-yl]-N-[(1S,2S,3S,5R)-2,6,6-trimethylbicyolo[3.1.1]hept-3-yl]pyrimidin-2-amine] | 1.58 |
| Cc1ccc(CNc2nccc(N3CCNCC3)n2)cc1 [Example 156, N-(4-Methylbenzyl)-4-piperazin-1-ylpyrimidin-2-amine] | 413 |
| CN[C@H]1CCN(c2ccnc(NCc3ccccn3)n2)C1 [Example 200, 4-[(3S)-3-(Methylamino)pyrrolidin-1-yl]-N-(pyridin-2-ylmethyl)pyrimidin-2-amine] | 860 |
| c1nnc(NC2CCCC2)cc1N1C[C@H]2CCN[C@H]2C1 [Example 345, N-Cyclopentyl-5-[(3aR,6aR)-hexahydropyrrolo[3,4-b]pyrrol-5(1H)-yl]pyridazin-3-amine] | 1320 |
| CN[C@@H]1CCN(c2ccnc(NCc3ccccc3)n2)C1 [Example 174, N-Benzyl-4-[(3R)-3-(methylamine)pyrrolidin-1-yl]pyrimidin-2-amine] | 19.1 |
| CN1CCN(c2ccnc(NCc3ccccn3)n2)CC1 [Example 62, 4-(4-Methylpiperazin-1-yl)-N-(pyridin-2-ylmethyl)pyrimidin-2-amine] | > 10000 |
| NC1CN(c2ccnc(NCC3CC3)n2)C1 [Example 86, 4-(3-Aminoazetidin-1-yl)-N-(cyclopropylmethyl)pyrimidin-2-amine] | 33.7 |
| c1ccc(CCNc2nccc(N3CCNCC3)n2)cc1 [Example 132, N-(2-Phenylethyl)-4-piperazin-1-ylpyrimidin-2-amine] | 1540 |
| NC1CN(c2ccnc(NC3CC4CCC3C4)n2)C1 (stereo not shown) [Example 87, 4-(3-Aminoazetidin-1-yl)-N-bicyclo[2.2.1]hept-2-ylpyrimidin-2-amine] | 33.7 |
| N[C@@H]1CCN(c2ccnc(NC3CC4CCC3C4)n2)C1 (stereo partly drawn) [Example 43, 4-[(3R)-3-Aminopyrrolidin-1-yl]-N-[bicyclo[2.2.1]hept-2-yl]pyrimidin-2-amine] | 3.3 |
| N[C@@H]1CCN(c2ccnc(NC3CC3)n2)C1 [Example 55, 4-[(3R)-3-Aminopyrrolidin-1-yl]-N-cyclopropylpyrimidin-2-amine] | 102 |
| C[C@@H]1[C@@H](Nc2nccc(N3CC[C@@H](N)C3)n2)C[C@H]2C[C@@H]1C2(C)C [Example 116, 4-[(3R)-3-Aminopyrrolidin-1-yl]-N-[(1S,2S,3S,5R)-2,6,6-trimethylbicyclo[3.1.1]hept-3-yl]pyrimidin-2-amine] | 7.53 |
| CC(C)CNc1nccc(N2CCN(C)CC2)n1 [Example 31, Isobutyl-[4-(4-methyl-piperazin-1-yl)-pyrimidin-2-yl]-amine] | 76.9 |

The remaining lines, values ahead:

| Ki [nM] | SMILES |
| --- | --- |
| 2100 | CC1C(Nc2cc(N3CCNCC3)ccn2)C[C@H]2C[C@@H]1C2(C)C (stereo partly drawn) [Example 269, 4-Piperazin-1-yl-N-[(1S,5R)-2,6,6-trimethylbicyclo[3.1.1]hept-3-yl]pyridine-2-amine] |
| 162 | CNC1CN(c2ccnc(NCCCO)c2)C1 [Example 283, 3-({4-[3-(Methylamino)azetidin-1-yl]pyridin-2-yl}amino)propan-1-ol] |
| 88.3 | CNC1CN(c2ccnc(NCCOC)c2)C1 [Example 286, N-(2-Methoxyethyl)-4-[3-(methylamino)azetidin-1-yl]pyridin-2-amine] |
| > 10000 | N[C@@H]1CCN(c2cnnc(NCCCO)c2)C1 [Example 313, 3-({5-[(3R)-3-Aminopyrrolidin-1-yl]pyridazin-3-yl}amino)propan-1-ol] |
| 1740 | N[C@@H]1CCN(c2cnnc(NCCc3ccccc3)c2)C1 [Example 364, 5-[(3R)-3-Aminopyrrolidin-1-yl]-N-(2-phenylethyl)pyridazin-3-amine] |
| 4730 | c1nnc(NCC2CCCC2)cc1N1CCNCC1 [Example 363, N-(Cyclopentylmethyl)-5-piperazin-1-ylpyridazin-3-amine] |
| 202 | CNC1CN(c2cnnc(NC3C[C@H]4C[C@@H](C3C)C4(C)C)c2)C1 (stereo partly drawn) [Example 301, 5-[3-(Methylamino)azetidin-1-yl]-N-[(1S,5R)-2,6,6-trimethylbicyclo[3.1.1]hept-3-yl]pyridazin-3-amine] |
| 5.15 | CNC1CN(c2ccnc(NC3CCCC3)c2)C1 [Example 259, N-Cyclopentyl-4-[3-(methylamino)azetidin-1-yl]pyridin-2-amine] |
| 2740 | NC1CN(c2cnnc(NC3CCCC3)c2)C1 [Example 326, 5-(3-Aminoazetidin-1-yl)-N-cyclopentylpyridazin-3-amine] |
| 7.29 | N[C@@H]1CCN(c2ccnc(NCC3CCCC3)c2)C1 [Example 278, 4-[(3R)-3-Aminopyrrolidin-1-yl]-N-(cyclopentylmethyl)pyridin-2-amine] |
| > 10000 | CC(C)(CO)CNc1cc(N2CCNCC2)cnn1 [Example 366, 2,2-Dimethyl-3-[(5-piperazin-1-ylpyridazin-3-yl)amino]propan-1-ol] |
| 4310 | CNC1CN(c2cnnc(NCCOC)c2)C1 [Example 320, N-(2-Methoxyethyl)-5-[3-(methylamino)azetidin-1-yl]pyridazin-3-amine] |
| 163 | CNC1CN(c2ccnc(NCc3ccc(F)cc3)c2)C1 [Example 295, N-(4-Fluorobenzyl)-4-[3-(methylamino)azeidin-1-yl]pyridin-2-amine] |
| 239 | CC1(C)[C@H]2CC[C@H](CNc3cc(N4C[C@H]5CCN[C@H]5C4)ccn3)[C@@H]1C2 [Example 291, N-{[(1S,2S,5S)-6,6-Dimethylbicyclo[3.1.1]hept-2-yl]methyl}-4-[(3aR,6aR)-hexahydropyrrolo[3.4-b]pyrrol-5(1H)-yl]pyridin-2-amine] |
| 36.5 | CN[C@@H]1CCN(c2cnnc(NCC3CCCCC3)c2)C1 [Example 391, N-(Cyclohexylmethyl)-5-[(3R)-3-(methylamino)pyrrolidin-1-yl]pyridazin-3-amine] |
| > 10000 | NC1CCN(c2cnnc(NCCCO)c2)C1 (stereo in doubt) [Example 338, 3-({5-[(3S)-3-Aminopyrrolidin-1-yl]pyridazin-3-yl}amino)propan-1-ol] |
| 206 | CNC1CN(c2cnnc(NC3CC3)c2)C1 [Example 351, N-Cyclopropyl-5-[3-(methylamino)azetidin-1-yl]pyridazin-3-amine] |
| 103 | CNC1CN(c2ccnc(NCCc3ccccc3)c2)C1 [Example 294, 4-[3-(Methylamino)azetidin-1-yl]-N-(2-phenylethyl)pyridin-2-amine] |

Same assay, conditions: read-out: Brandel Ki

| SMILES | Ki [nM] |
| --- | --- |
| CCCCNc1cc(N2CCNCC2)ccn1 [Example 36, N-Butyl-4-piperazin-1-ylpyridin-2-amine] | 91.3 |
